Results taken from US12485123B2, “1H-pyrazolo[4,3-d]pyrimidine compounds as toll-like receptor 7 (TLR7) agonists” (BRISTOL-MYERS SQUIBB COMPANY, priority 2020, dated 2025).

Key:
CD69 = test: Induction of CD69 in human whole blood; format: cell-based; conditions: 17 hrs incubation, CD69 surface staining, 100% set to 1 uM of resiquimod, average where assay repeated, read-out: hWB CD69 EC50
Method: Induction of Type I Interferon Genes (MX-1) and CD69 in Human Blood
The induction of Type I interferon (IFN) MX-1 genes and the B-cell activation marker CD69 are downstream events that occur upon activation of the TLR7 pathway. The following is a human whole blood assay that measures their induction in response to a TLR7 agonist.
Heparinized human whole blood was harvested from human subjects and treated with test TLR7 agonist compounds at 1 mM. The blood was diluted with RPMI 1640 media and Echo was used to predot 10 nL per well giving a final concentration of 1 uM (10 nL in 10 uL of blood). After mixing on a shaker for 30 sec, the plates were covered and placed in a 37° C. chamber for o/n=17 hrs. Fixing/lysis buffer was prepared (5×→1× in H2O, warm at 37° C.; Cat #BD 558049) and kept the perm buffer (on ice) for later use.
For surface markers staining (CD69): prepared surface Abs: 0.045 ul hCD14-FITC (ThermoFisher Cat #MHCD1401)+0.6 ul hCD19-ef450 (ThermoFisher Cat #48-0198-42)+1.5 ul hCD69-PE (cat #BD555531)+0.855 ul FACS buffer. Added 3 ul/well, spin 1000 rpm for 1 min and mixed on shaker for 30 sec, put on ice for 30 min. Stop stimulation after 30 minutes with 70 uL of prewarmed 1× fix/lysis buffer and use Feliex mate to resuspend (15 times, change tips for each plate) and incubate at 37 C for 10 minutes.
Centrifuge at 2000 rpm for 5 minutes aspirate with HCS plate washer, mix on shaker for 30 sec and then wash with 70 uL in dPBS and pelleted 2×s (2000 rpm for 5 min) and 50 ul wash in FACS buffer pelleted 1×s (2000 rpm for 5 min). Mix on shaker for 30 sec. For Intracellular markers staining (MX-1): Add 50 ul of BD Perm buffer III and mix on shaker for 30 sec. Incubate on ice for 30 minutes (in the dark). Wash with 50 uL of FACS buffer 2× (spin @2300 rpm×5 min after perm) followed by mixing on shaker for 30 sec. Resuspended in 20 ul of FACS buffer containing MX1 antibody ( )(4812)-Alexa 647: Novus Biologicals #NBP2-43704AF647) 20 ul FACS bf+0.8 ul hIgG+0.04 ul MX-1. Spin 1000 rpm for 1 min, mix on shaker for 30 se and the samples were incubated at RT in the dark for 45 minutes followed by washing 2×FACS buffer (spin @2300 rpm×5 min after perm). Resuspend 20 ul (35 uL total per well) of FACS buffer and cover with foil and place in 4° C. to read the following day. Plates were read on iQuePlus. The results were loaded into toolset and […] curves are generated in curve master. The y-axis 100% is set to 1 uM of resiquimod.

human TLR7 = biological target: T1, human TLR7 (Homo sapiens, UniProt Q9NYK1); test: Human TLR7 agonist activity reporter assay (HEK-Blue TLR7 cells, SEAP reporter); format: cell-based; conditions: human TLR7 (hTLR7) reporter assay, SEAP readout after 18 h, average where assay repeated, read-out: TLR7 Agonism EC50
T1 construct: host or cells: HEK-Blue TLR7 cells (engineered human embryonic kidney cells)
T1 sequence (Q9NYK1 27-1049): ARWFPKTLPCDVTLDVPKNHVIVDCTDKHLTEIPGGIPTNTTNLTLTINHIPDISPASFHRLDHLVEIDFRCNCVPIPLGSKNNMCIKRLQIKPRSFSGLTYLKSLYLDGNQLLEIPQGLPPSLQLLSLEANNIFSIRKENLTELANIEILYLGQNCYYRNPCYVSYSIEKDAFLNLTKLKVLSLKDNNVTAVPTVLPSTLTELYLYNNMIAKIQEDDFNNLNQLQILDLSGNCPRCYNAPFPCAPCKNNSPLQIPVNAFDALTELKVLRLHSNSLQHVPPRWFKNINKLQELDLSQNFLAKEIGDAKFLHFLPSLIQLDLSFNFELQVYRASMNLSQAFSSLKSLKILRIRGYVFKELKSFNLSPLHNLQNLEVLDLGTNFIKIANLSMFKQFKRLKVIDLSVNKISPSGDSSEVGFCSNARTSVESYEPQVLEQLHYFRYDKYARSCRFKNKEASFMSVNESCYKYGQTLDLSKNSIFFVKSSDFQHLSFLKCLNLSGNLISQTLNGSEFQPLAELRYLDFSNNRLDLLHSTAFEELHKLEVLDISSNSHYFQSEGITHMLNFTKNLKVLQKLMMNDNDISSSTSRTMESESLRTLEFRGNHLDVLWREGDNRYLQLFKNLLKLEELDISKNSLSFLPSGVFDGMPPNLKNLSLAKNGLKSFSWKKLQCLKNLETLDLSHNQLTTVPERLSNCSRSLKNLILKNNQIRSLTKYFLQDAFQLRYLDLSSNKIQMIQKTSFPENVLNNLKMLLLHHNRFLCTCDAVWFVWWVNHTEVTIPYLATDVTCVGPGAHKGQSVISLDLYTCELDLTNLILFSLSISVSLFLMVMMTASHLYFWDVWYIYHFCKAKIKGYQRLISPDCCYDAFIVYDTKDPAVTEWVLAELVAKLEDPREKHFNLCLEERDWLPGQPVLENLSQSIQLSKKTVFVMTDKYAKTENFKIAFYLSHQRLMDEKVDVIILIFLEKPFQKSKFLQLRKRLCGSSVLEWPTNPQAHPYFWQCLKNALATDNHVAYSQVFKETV
Method: Human TLR7 Agonist Activity Assay
This procedure describes a method for assaying human TLR7 (hTLR7) agonist activity of the compounds disclosed in this specification.
HEK-Blue™ TLR7 cells were added to each well of a 384-well tissue-culture plate (15,000 cells per well) and incubated 16-18 h at 37° C., 5% CO2. Compounds (100 nl) were dispensed into wells containing the HEK-Blue™ TLR cells and the treated cells were incubated at 37° C., 5% CO2. After 18 h treatment ten microliters of freshly-prepared Quanti-Blue™ reagent (Invivogen) was added to each well, incubated for 30 min (37° C., 5% CO2) and SEAP levels measured using an Envision plate reader (OD=620 nm).

Compound | EC50 (CD69) [nM] | EC50 (human TLR7) [nM]
CCC[C@@H](CCO)Nc1nc(N)nc2cnn(Cc3ccc(C(=O)N4CCN(C)CC4)c4cccnc34)c12 [Compound 112, (3S)-3-[(5-amino-1-{[5-(4-methylpiperazine-1-carbonyl)quinolin-8-yl]methyl}-1H-pyrazolo[4,3-d]pyrimidin-7-yl)amino]hexan-1-ol] | 5.1 | 4.9
CCC[C@@H](CCO)Nc1nc(N)nc2cnn(Cc3ccc(C(=O)N4CCOCC4)c4cccnc34)c12 [Compound 113, (3S)-3-[(5-amino-1-{[5-(morpholine-4-carbonyl)quinolin-8-yl]methyl}-1H-pyrazolo[4,3-d]pyrimidin-7-yl)amino]hexan-1-ol] | 132 | 186
CCC[C@@H](CCO)Nc1nc(N)nc2cnn(Cc3ccc(C(=O)NC4CCOCC4)c4cccnc34)c12 [Compound 114, 8-[(5-amino-7-{[(3S)-1-hydroxyhexan-3-yl]amino}-1H-pyrazolo[4,3-d]pyrimidin-1-yl)methyl]-N-(oxan-4-yl)quinoline-5-carboxamide] | 369 | 75.2
Nc1nc(NCC2CC3(CC3)C2)c2c(cnn2Cc2ccc(C(=O)N3CCN(CCO)CC3)c3cccnc23)n1 [Compound 115, 2-{4-[8-({5-amino-7-[({spiro[2.3]hexan-5-yl}methyl)amino]-1H-pyrazolo[4,3-d]pyrimidin-1-yl}methyl)quinoline-5-carbonyl]piperazin-1-yl}ethan-1-ol] | 756 | 468
CN1CCC(NC(=O)c2ccc(Cn3ncc4nc(N)nc(NCC5CC6(CC6)C5)c43)c3ncccc23)CC1 [Compound 116, 8-({5-amino-7-[({spiro[2.3]hexan-5-yl}methyl)amino]-1H-pyrazolo[4,3-d]pyrimidin-1-yl}methyl)-N-(1-methylpiperidin-4-yl)quinoline-5-carboxamide] | 291 | 280
Nc1nc(NCC2CC3(CC3)C2)c2c(cnn2Cc2ccc(C(=O)N3CCNC(=O)C3)c3cccnc23)n1 [Compound 117, 4-[8-({5-amino-7-[({spiro[2.3]hexan-5-yl}methyl)amino]-1H-pyrazolo[4,3-d]pyrimidin-1-yl}methyl)quinoline-5-carbonyl]piperazin-2-one] | 266 | 447
CCC[C@@H](CCO)Nc1nc(N)nc2cnn(Cc3ccc(C(=O)N4CCNC(=O)C4)c4cccnc34)c12 [Compound 118, 4-{8-[(5-amino-7-{[(3S)-1-hydroxyhexan-3-yl]amino}-1H-pyrazolo[4,3-d]pyrimidin-1-yl)methyl]quinoline-5-carbonyl}piperazin-2-one] | 208 | 311
CCC[C@@H](CCO)Nc1nc(N)nc2c(C)nn(Cc3ccc(C(=O)NC4CCOCC4)c4cccnc34)c12 [Compound 119, 8-[(5-amino-7-{[(3S)-1-hydroxyhexan-3-yl]amino}-3-methyl-1H-pyrazolo[4,3-d]pyrimidin-1-yl)methyl]-N-(oxan-4-yl)quinoline-5-carboxamide] | 1000 | 606
CCC[C@@H](CCO)Nc1nc(N)nc2c(C)nn(Cc3ccc(C(=O)N4CCN(CCO)CC4)c4cccnc34)c12 [Compound 120, (3S)-3-{[5-amino-1-({5-[4-(2-hydroxyethyl)piperazine-1-carbonyl]quinolin-8-yl}methyl)-3-methyl-1H-pyrazolo[4,3-d]pyrimidin-7-yl]amino}hexan-1-ol] | 1000 | 882
CCC[C@@H](CCO)Nc1nc(N)nc2cnn(Cc3ccc(C(=O)NC4CCN(C)CC4)c4cccnc34)c12 [Compound 121, 8-[(5-amino-7-{[(3S)-1-hydroxyhexan-3-yl]amino}-1H-pyrazolo[4,3-d]pyrimidin-1-yl)methyl]-N-(1-methylpiperidin-4-yl)quinoline-5-carboxamide] | 153 | 267
Cc1cc(CNc2nc(N)nc3cnn(Cc4ccc(C(=O)NC5CCN(C)CC5)c5cccnc45)c23)no1 [Compound 122, 8-[(5-amino-7-{[(5-methyl-1,2-oxazol-3-yl)methyl]amino}-1H-pyrazolo[4,3-d]pyrimidin-1-yl)methyl]-N-(1-methylpiperidin-4-yl)quinoline-5-carboxamide] | 54 | 309
CCC[C@@H](CCO)Nc1nc(N)nc2c(C)nn(Cc3ccc(C(=O)NC4CCN(C)CC4)c4cccnc34)c12 [Compound 123, 8-[(5-amino-7-{[(3S)-1-hydroxyhexan-3-yl]amino}-3-methyl-1H-pyrazolo[4,3-d]pyrimidin-1-yl)methyl]-N-(1-methylpiperidin-4-yl)quinoline-5-carboxamide] | 661 | 732
CCC[C@@H](CCO)Nc1nc(N)nc2cnn(Cc3ccc(C(=O)N4CC5(CNC5)C4)c4cccnc34)c12 [Compound 124, (3S)-3-({5-amino-1-[(5-{2,6-diazaspiro[3.3]heptane-2-carbonyl}quinolin-8-yl)methyl]-1H-pyrazolo[4,3-d]pyrimidin-7-yl}amino)hexan-1-ol] | 248 | 440
CCC[C@@H](CCO)Nc1nc(N)nc2cnn(Cc3ccc(C(=O)N4C[C@H]5CN(C)C[C@H]5C4)c4cccnc34)c12 [Compound 125, (3S)-3-{[1-([5-[(3aR,6aS)-5-methyl-octahydropyrrolo[3,4-c]pyrrole-2-carbonyl]quinolin-8-yl}methyl)-5-amino-1H-pyrazolo[4,3-d]pyrimidin-7-yl]amino}hexan-1-ol] | 83.3 | 33.7
CCC[C@@H](CCO)Nc1nc(N)nc2cnn(Cc3ccc(C(=O)N4C[C@H]5C[C@@H]4CN5C)c4cccnc34)c12 [Compound 126, (3S)-3-{[5-amino-1-({5-[(1R,4R)-5-methyl-2,5-diazabicyclo[2.2.1]heptane-2-carbonyl]quinolin-8-yl}methyl)-1H-pyrazolo[4,3-d]pyrimidin-7-yl]amino}hexan-1-ol] | 49.7 | 191
